For the test, the system named is Plasmodium falciparum. As to the kind of experiment: GSK_TCMDC: Inhibition of Plasmodium falciparum 3D7 in whole erythrocytes, using parasite LDH activity as an index of growth. In kind it is functional, organism-based. As to conditions: Plasmodium falciparum, 3D7.

Regarding `COc1ccc(-c2ccc(NC(=O)c3ccc(Cl)cc3)cc2)cc1CN1CCCN(C)CC1`, the XC50 was 648 nM.
Under `COc1ccc(S(=O)(=O)N2CCOCC2)cc1NC(=O)c1cc2ccccc2o1` stands 795 nM; under `CC(C)(C)c1ccc(CNC(=O)c2cc(CNC3CCNCC3)ccc2O)cc1`, 710 nM.
`O=C(NCCCCN1CCCC2c3cccc(O)c3CCC21)c1ccc(-c2ccccc2)cc1` (configuration not stated) came in with an XC50 of 1170 nM.
Under `COc1ccccc1C(C)NCC(=O)Nc1cc(C(F)(F)F)ccc1Cl` (configuration not stated) stands 778 nM; under `NC(=O)COc1c(C2CCN(CCCCNC(=O)c3ccc(-c4ccc(Cl)cc4)c(O)c3)CC2)ccc2c1CCCC2`, 706 nM.
Under `CC(=O)N1N=C(c2ccc(F)cc2)Sc2c1nc(-c1ccccc1)n2C(C)=O` stands 651 nM; under `CN1CCCN(Cc2ccc(-c3cccc(NC(=O)c4ccc(F)cc4)c3)cc2)CC1`, 1090 nM.
`O=C(c1cc(-c2ccccc2)n[nH]1)N1CCN(S(=O)(=O)c2ccc(Cl)s2)CC1` gave an XC50 of 925 nM.
For the compound `COc1ccc(-c2cc(C(=O)N3CCc4ccccc43)c3ccccc3n2)cc1OC`, the XC50 was 327 nM.
Under `CCc1c(C)nc2nc(Cc3cccc(F)c3)nn2c1N1CCN(c2ccccn2)CC1` stands 750 nM; under `Cc1cc(NC(=O)Nc2ccc3ccn(C)c3c2)c2ccccc2n1`, 214 nM.
Under `CC(C)NCc1ccc(-c2cccc(NC(=O)c3ccc(F)cc3)c2)cc1` stands 881 nM; under `CC(C)(C)OC(=O)N1CCC(C2CCN(C(=O)OC(C)(C)C)CC2)CC1`, 1160 nM; under `CC1(C)NC(N)=NC(=N)N1OCCCOc1ccccc1N`, 3.2 nM.
`Cc1ccc(Nc2nc(C)cc(NC3CC3)n2)cc1` registered an XC50 of 1220 nM.
As to `CCCN1CCN(CC(O)CNC(=O)Nc2ccc(Br)cc2)CC1` (configuration not stated), the XC50 stood at 63 nM.
Next, `Clc1cc2c(Nc3ccc(Oc4ccccc4)cc3)ccnc2cc1-c1ccc(CNCCN2CCOCC2)o1`: 707 nM; `Cc1c(-c2ccc3c(c2)C(NCCCN2CCCCC2)CC3)cnc(N)c1C` (configuration not stated): 1110 nM.
Next, `O=C(Nc1cccc(-c2cccc(-c3nc4cc(C(F)(F)F)ccc4[nH]3)c2)c1)c1ccc(=O)[nH]n1`: 656 nM; `CC(Sc1nc(-c2ccccc2)c(-c2ccccc2)o1)C(=O)NC1CC1` (configuration not stated): 843 nM; `COc1cccc(CN2CCC3(CC2)CN(C(=O)Nc2ccc(Cl)c(Cl)c2)C3)c1`: 752 nM.
Next, `O=C(C1CC1c1ccccc1)N(Cc1ccc(-c2ccc(CNCCc3ccccc3)cc2)cc1)C1CCNCC1` (configuration not stated): 1110 nM; `Cc1cc(N[C@@H](Cc2ccccc2)C(=O)NCCOc2ccccc2)nc(NCCc2ccccc2)n1`: 1030 nM; `COc1ccc(CCn2c(C3CCCCC3)nc3oc4ccccc4c(=O)c3c2=O)cc1`: 952 nM.
Compound `NS(=O)(=O)CCc1cccc(Nc2nccc(-c3c(-c4cccc(NC(=O)c5c(F)cccc5F)c4)nn4ccccc34)n2)c1` yielded an XC50 of 58.4 nM.
In turn, `COc1ccc2ncc(C)c(CCN3CCC(NCc4ccc5c(n4)NC(=O)CS5)CC3)c2c1` displayed an XC50 of 546 nM.
Under `O=C(Nc1ccc([N+](=O)[O-])cc1)c1nn(-c2ccccc2)cc1/N=C/c1cccc(O)c1` stands 890 nM; under `Nc1nc(N)c2c(n1)CCc1cc(Br)ccc1-2`, 1130 nM.
`CN1CCC(NC(=O)c2cc(Oc3ccc4c(c3)CCN4C(=O)Nc3cccc(C(F)(F)F)c3)ccn2)CC1`: the XC50 was 930 nM.
Compound `COc1ccc2ncc(F)c(NC(=O)C3CCC(NCc4cc5c(F)cccc5[nH]4)CC3)c2n1` (configuration not stated) had an XC50 of 1090 nM.
Under `O=C(CCCCCNC(=O)c1ccc(O)c(-c2ccc(Cl)c(Cl)c2)c1)NC1CCCc2ccccc21` (configuration not stated) stands 759 nM; under `CC1(C)NC(N)=NC(=N)N1OCCCc1c(Cl)cccc1Cl`, 3.2 nM; under `Nc1nc(N)c(-c2ccccc2)c(=O)[nH]1`, 1000 nM.
For `COc1cccc(-c2ccc3c(-c4ccc(F)cc4)cnc(N)c3c2)c1`, the XC50 is 807 nM.
Under `CCCC(C)c1ccc(N2C(N)=NC(N)=NC2(C)C)cc1` (configuration not stated) stands 6.27 nM; under `COc1ccc(-c2ccc(NC(=O)c3ccc(Cl)cc3)cc2)cc1CN(C)CCN(C)C`, 675 nM.
Under `COc1ccccc1CCNc1nc(C)cc(N[C@@H](Cc2ccccc2)C(=O)NCCCOC(C)C)n1` stands 865 nM; under `COc1cc(NC(=O)CCCCCCCN2CCN(C)CC2)c2ncccc2c1`, 611 nM.
Next, `CC1(C)CCNc2cc(NC(=O)c3ccc(-c4ncccc4C(F)(F)F)cc3)ccc21`: 903 nM; `CC(CON1C(N)=NC(N)=NC1(C)C)c1ccc(Cl)cc1Cl` (configuration not stated): 3.2 nM.
With `CCc1cn2c3c(cc(C(=O)N[C@@H](Cc4ccccc4)[C@H](O)CNC(C)(C)c4cccc(OC)c4)cc13)N(C)S(=O)(=O)C2`, the XC50 was determined as 61.7 nM.
For `COCCNCc1ncsc1-c1ccc2c(Nc3cc(O)c(Cl)cc3F)ccnc2c1`, the XC50 came out at 547 nM.
Next, `CCOC(=O)Cc1nc(C(=O)OCC)c(N)[nH]1`: 647 nM; `CCOc1cc(C(=O)N[C@@H](Cc2ccccc2)[C@H](O)CNCc2cc(OC)cc(OC)c2)cc(N2CCCC2=O)c1`: 852 nM; `O=C1OC2(CN1CC1CCN(Cc3ccc(O)cc3Cl)C1)c1ccccc1-c1ccccc12` (configuration not stated): 1170 nM.
As to `O=C(/C=C/c1ccc(Cl)c(Cl)c1)NCC(CCCN1CCC(c2c[nH]c3ccccc23)CC1)c1ccccc1` (configuration not stated), the XC50 worked out at 813 nM.
Compound `COc1ccc2nccc([C@@H](O)CN3CCC(NCc4ccc5cccc(O)c5n4)CC3)c2n1` showed an XC50 of 912 nM.
Consider `CC(C)NCc1cccc(-c2cccc(-c3nc4cc(F)ccc4[nH]3)c2)c1`, for which the XC50 was 285 nM.
In the case of `CC(Cc1ccc(NC(=O)[C@H](C)NCCc2cccc(Cl)c2)cc1)NCCc1cccc(Cl)c1` (some centres not stated), the XC50 amounted to 663 nM.
Next, `COc1ccc(CN2CCCN(Cc3cccc(NC(=O)c4ccc(-c5ccccc5)cc4)c3)CC2)cc1`: 943 nM; `COc1ccc(C2C(C(=O)Nc3ccc(C)cc3Br)c3ccccc3C(=O)N2C)cc1` (configuration not stated): 941 nM; `OC1CCC(Nc2ccc3ncc(-c4ccc5ccccc5c4)n3n2)CC1` (configuration not stated): 978 nM.
Compound `O=C(Nc1ccc(-c2nc3ccccc3[nH]2)cc1)C1CCN(Cc2ccc(F)cc2)CC1` displayed an XC50 of 838 nM.
Next, `COc1ccc2c(=NN=Cc3ccncc3)cc(C)[nH]c2c1`: 814 nM; `CN1CC[C@@H](Oc2cc(Nc3nc(-c4ccc(C#N)cc4)cs3)ccc2Cl)C1`: 821 nM; `O=C(Cc1c[nH]cn1)Nc1cccc(-c2ccc(-c3nc4cc(F)ccc4[nH]3)s2)c1`: 660 nM.
Next, `CCNc1cc(C(=O)N[C@@H](Cc2ccccc2)[C@H](O)CNC(C)(C)c2cccc(OC)c2)cc(N2CCCC2=O)c1`: 143 nM; `CCCCCNC(=N)c1ccc(OCCCCCOc2ccc(C(=N)NCCCCC)cc2)cc1`: 247 nM; `c1cc(CNc2ncc(-c3ccsc3)c(-c3nccs3)n2)ccn1`: 358 nM.
Under `COc1ccc(-c2nc3c(N)nc(N)nc3nc2-c2ccccc2Cl)cc1.COc1ccc(-c2nc3nc(N)nc(N)c3nc2-c2ccccc2Cl)cc1` stands 549 nM; under `N=c1n(CCN2CCCCC2)c2ccccc2n1CC(O)c1cccc(Br)c1` (configuration not stated), 1140 nM.
Regarding `CC(=O)C1(c2ccccc2)CCN(CCC2(c3ccc(Cl)c(Cl)c3)CN(C(=O)Nc3cc(F)cc(F)c3)CCO2)CC1` (configuration not stated), the XC50 turned out to be 1480 nM.
Compound `COc1ccc2nccc(N3CCN(CCNCc4ccc5c(n4)NC(=O)CS5)CC3)c2n1` showed an XC50 of 843 nM.
Next, `CC(Oc1ccc(Cl)cc1)C(=O)NCCC1CCN(CCCCCNC(=O)/C=C/c2ccc(Cl)c(Cl)c2)CC1` (configuration not stated): 1020 nM.
`COc1cccc(-c2ccc(O)c(CNCCc3cccc(F)c3)c2)n1` registered an XC50 of 914 nM.
As for `C=CCn1c(SCC(=O)Nc2cc(C)ccc2OC)nc2sc(C)cc2c1=O`, the XC50 came to 417 nM.
Next, `O=C(/C=C/c1ccc(Cl)c(Cl)c1)NCCCCN1CCCN(C(=O)Nc2ccc(C(F)(F)F)cc2)CC1`: 847 nM.
Compound `S=C(Nc1ccccc1Cl)NC1CCC(CN2CCC(c3c[nH]c4ccccc34)CC2)CC1` (configuration not stated) returned an XC50 of 1050 nM.
Next, `COc1ccc(F)cc1-c1ccc(C(=O)N2CCCN(c3ccc(C(F)(F)F)cn3)CC2)cc1`: 157 nM; `CS(=O)(=O)Nc1ccc2[nH]cc(C3CCN(CC4CCC(NC(=O)/C=C/c5ccc(Cl)c(Cl)c5)CC4)CC3)c2n1` (configuration not stated): 780 nM; `O=C(NCCCNc1ccc2ccccc2n1)c1cc2c(Cl)cc(Cl)cc2[nH]1`: 604 nM.
Next, `COc1ccc(-c2cc(-c3ccc(S(C)(=O)=O)cc3)cnc2N)cn1`: 187 nM.
Under `Cn1nc(-c2ccccc2F)c2cc(C(=O)NC3CCN(Cc4ccccc4)CC3)sc21` stands 789 nM; under `Nc1ccc(-c2ccc3ccnc(N)c3c2)cn1`, 353 nM; under `Cc1nc(-c2ccc(C(F)(F)F)cn2)sc1C(=O)N1CCc2cc3nccc(N4CCN5CCC[C@H]5C4)c3cc21`, 784 nM.
Turning to `COc1cccc(CNC(=O)[C@@H]2CN(C(=O)c3ccccc3)CCN2)c1`, the XC50 came out at 1160 nM.
Under `CC(=O)NCC(=O)NC1=NC(=N)N(OCc2ccc3ccccc3c2)C(C)(C)N1` stands 3.2 nM.
Take `Cc1cc(-c2ccc(Cl)cc2)c2c(N)c(C(=O)Nc3ccc(F)cc3)sc2n1`: the XC50 was determined as 818 nM.
Compound `CCCCCCC(C)(C)c1cc(O)c2c3c(c(=O)oc2c1)CCN(Cc1ccccc1)C3` gave an XC50 of 217 nM.
As to `COc1cc2c(cc1C(F)(F)F)N(C(=O)Nc1cc(Br)cc(-c3cccnc3)c1)CC2`, the XC50 amounted to 864 nM.
Next, `COc1ccc(Nc2ncc3c(-c4cccc(NC(=O)Cc5cccnc5)c4)c[nH]c3n2)cc1OC`: 718 nM.
Compound `CCCCCCCCNc1c2ccc(Cl)cc2nc2ccc(OC)cc12` had an XC50 of 805 nM.
Compound `FC(F)(F)c1ccc(-c2ccc(CNC3CCN(CCN4CCOCC4)CC3)cc2)cc1` displayed an XC50 of 756 nM.
Next, `Cc1c(C(=O)N(C)C)sc2c1c(=O)n(Cc1ccccc1)c(=O)n2CC(=O)Nc1ccccc1F`: 657 nM; `N#Cc1ccc(CN2CCC(Oc3ccc(NC(=O)c4cccs4)cc3)CC2)cc1`: 1030 nM.
The compound `CCCCc1cc(O)c2c(c1)OC(C)(C)C=C2C1=CCN(Cc2ccccc2)CC1` gave an XC50 of 247 nM.

For the origin of these results see ChEMBL document CHEMBL1157539, “Thousands of chemical starting points for antimalarial lead identification” (Nature, 2010).
